Test results reported in ChEMBL document CHEMBL1139888, “Fungicidal activities of dihydroferulic acid alkyl ester analogues” (2007).
In brackets after ≈: the same amount, converted by molar mass.

How the values were obtained:
Type in all cases: functional
Saccharomyces cerevisiae [1] = test: Growth inhibition of wild type Saccharomyces cerevisiae BY47411 at 5 mM after 48 hrs relative to control
Saccharomyces cerevisiae [2] = test: Antifungal activity against wild type Saccharomyces cerevisiae BY47411 after 24 hrs
Saccharomyces cerevisiae [3] = test: Growth inhibition of wild type Saccharomyces cerevisiae BY47411 at 6.4 mM after 48 hrs relative to control
Aspergillus fumigatus [4] = test: Fungicidal activity against wild type Aspergillus fumigatus AF293 assessed as radial growth on potato dextrose agar plate at 6.4 mM after 4 days
Aspergillus flavus [5] = test: Fungicidal activity against wild type Aspergillus flavus NRRL3357 assessed as radial growth on potato dextrose agar plate at 0.2 mM after 4 days
Saccharomyces cerevisiae [6] = test: Antifungal activity against wild type Saccharomyces cerevisiae BY47411 assessed as cell number at 0.8 mM after 48 hrs
Aspergillus flavus [7] = test: Growth inhibition of wild type Aspergillus flavus NRRL3357 at 0.4 mM after 4 days; settings: NRRL3357, 96 h
Saccharomyces cerevisiae [8] = test: Growth inhibition of wild type Saccharomyces cerevisiae BY47411 at 0.8 mM after 48 hrs relative to control
Aspergillus fumigatus [9] = test: Fungicidal activity against wild type Aspergillus fumigatus AF293 assessed as radial growth on potato dextrose agar plate at 0.8 mM after 4 days
Aspergillus flavus [10] = test: Growth inhibition of wild type Aspergillus flavus NRRL3357 at 0.2 mM after 4 days; settings: NRRL3357, 96 h
Aspergillus flavus [11] = test: Antifungal activity against Aspergillus flavus NRRL3357
Saccharomyces cerevisiae [12] = test: Growth inhibition of wild type Saccharomyces cerevisiae BY47411 at 3.2 mM after 48 hrs relative to control
Saccharomyces cerevisiae [13] = test: Growth inhibition of wild type Saccharomyces cerevisiae BY47411 at 1.6 mM after 48 hrs relative to control
Aspergillus fumigatus [14] = test: Growth inhibition of wild type Aspergillus fumigatus AF293 at 6.4 mM after 4 days; settings: AF293, 96 h
Aspergillus fumigatus [15] = test: Fungicidal activity against wild type Aspergillus fumigatus AF293 assessed as radial growth on potato dextrose agar plate at 3.2 mM after 4 days
Saccharomyces cerevisiae [16] = test: Antifungal activity against wild type Saccharomyces cerevisiae BY47411 assessed as cell number at 1.6 mM after 48 hrs
Aspergillus fumigatus [17] = test: Fungicidal activity against wild type Aspergillus fumigatus AF293 assessed as radial growth on potato dextrose agar plate at 0.4 mM after 4 days
Aspergillus fumigatus [18] = test: Growth inhibition of wild type Aspergillus fumigatus AF293 at 1.6 mM after 4 days; settings: AF293, 96 h
Saccharomyces cerevisiae [19] = test: (§1) Growth inhibition of Saccharomyces cerevisiae bck1delta deletion mutant at 3.2 mM relative to control after 48 hrs
Aspergillus flavus [20] = test: Fungicidal activity against wild type Aspergillus flavus NRRL3357 assessed as radial growth on potato dextrose agar plate at 6.4 mM after 4 days
Aspergillus fumigatus [21] = test: Growth inhibition of wild type Aspergillus fumigatus AF293 at 0.1 mM after 4 days; settings: AF293, 96 h
Saccharomyces cerevisiae [22] = test: as §1; remark: listed apart in the source
Aspergillus flavus [23] = test: Growth inhibition of wild type Aspergillus flavus NRRL3357 at 0.8 mM after 4 days; settings: NRRL3357, 96 h
Aspergillus flavus [24] = test: Fungicidal activity against wild type Aspergillus flavus NRRL3357 assessed as radial growth on potato dextrose agar plate at 1.6 mM after 4 days
Saccharomyces cerevisiae [25] = test: Antifungal activity against Saccharomyces cerevisiae bck1delta deletion mutant assessed as cell number at 3.2 mM after 48 hrs
Aspergillus flavus [26] = test: Fungicidal activity against wild type Aspergillus flavus NRRL3357 assessed as radial growth on potato dextrose agar plate at 0.1 mM after 4 days
Saccharomyces cerevisiae [27] = test: Antifungal activity against wild type Saccharomyces cerevisiae BY47411 assessed as cell number at 6.4 mM after 48 hrs
Saccharomyces cerevisiae [28] = test: Antifungal activity against Saccharomyces cerevisiae bck1delta deletion mutant assessed as cell number at 1.6 mM after 48 hrs
Aspergillus fumigatus [29] = test: Fungicidal activity against wild type Aspergillus fumigatus AF293 assessed as radial growth on potato dextrose agar plate at 1.6 mM after 4 days
Aspergillus flavus [30] = test: Growth inhibition of wild type Aspergillus flavus NRRL3357 at 0.1 mM after 4 days; settings: NRRL3357, 96 h
Aspergillus flavus [31] = test: Growth inhibition of wild type Aspergillus flavus NRRL3357 at 6.4 mM after 4 days; settings: NRRL3357, 96 h
Aspergillus flavus [32] = test: Growth inhibition of wild type Aspergillus flavus NRRL3357 at 3.2 mM after 4 days; settings: NRRL3357, 96 h
Aspergillus flavus [33] = test: Fungicidal activity against wild type Aspergillus flavus NRRL3357 assessed as radial growth on potato dextrose agar plate at 0.8 mM after 4 days
Aspergillus fumigatus [34] = test: Growth inhibition of wild type Aspergillus fumigatus AF293 at 0.2 mM after 4 days; settings: AF293, 96 h
Saccharomyces cerevisiae [35] = test: Antifungal activity against wild type Saccharomyces cerevisiae BY47411 assessed as cell number at 3.2 mM after 48 hrs
Aspergillus fumigatus [36] = test: Growth inhibition of wild type Aspergillus fumigatus AF293 at 0.4 mM after 4 days; settings: AF293, 96 h
Aspergillus fumigatus [37] = test: Antifungal activity against Aspergillus fumigatus AF293
Aspergillus fumigatus [38] = test: Fungicidal activity against wild type Aspergillus fumigatus AF293 assessed as radial growth on potato dextrose agar plate at 0.2 mM after 4 days
Aspergillus flavus [39] = test: Growth inhibition of wild type Aspergillus flavus NRRL3357 at 1.6 mM after 4 days; settings: NRRL3357, 96 h
Aspergillus fumigatus [40] = test: Growth inhibition of wild type Aspergillus fumigatus AF293 at 3.2 mM after 4 days; settings: AF293, 96 h
Aspergillus flavus [41] = test: Fungicidal activity against wild type Aspergillus flavus NRRL3357 assessed as radial growth on potato dextrose agar plate at 0.4 mM after 4 days
Aspergillus flavus [42] = test: Fungicidal activity against wild type Aspergillus flavus NRRL3357 assessed as radial growth on potato dextrose agar plate at 3.2 mM after 4 days
Aspergillus fumigatus [43] = test: Growth inhibition of wild type Aspergillus fumigatus AF293 at 0.8 mM after 4 days; settings: AF293, 96 h
Aspergillus fumigatus [44] = test: Fungicidal activity against wild type Aspergillus fumigatus AF293 assessed as radial growth on potato dextrose agar plate at 0.1 mM after 4 days

## CCCCCCCCCCOC(=O)CCc1ccc(O)c(OC)c1 [DIHYDROFERULIC ACID DECYL ESTER]
Saccharomyces cerevisiae [1]
  inhibition at 5000 µM: 2.8%

## CCOC(=O)CCc1ccc(O)c(OC)c1 [DIHYDROFERULIC ACID ETHYL ESTER]
Saccharomyces cerevisiae [2]
  MIC50: 4 mM (≈ 897 µg/mL)
  MIC90: > 6.4 mM
Saccharomyces cerevisiae [1]
  inhibition at 5000 µM: 98.7%
Saccharomyces cerevisiae [3]
  inhibition at 6400 µM: 87%

## COC(=O)CCc1ccc(O)c(OC)c1 [DIHYDROFERULIC ACID METHYL ESTER]
Saccharomyces cerevisiae [2]
  MIC50: 2.1 mM (≈ 441 µg/mL)
  MIC90: 5.6 mM (≈ 1180 µg/mL)
Saccharomyces cerevisiae [1]
  inhibition at 5000 µM: 100%

## CCCCCCCCOC(=O)CCc1ccc(O)c(OC)c1 [DIHYDROFERULIC ACID OCTYL ESTER]
Saccharomyces cerevisiae [1]
  inhibition at 5000 µM: 6.2%

## CCCOC(=O)CCc1ccc(O)c(OC)c1 [DIHYDROFERULIC ACID PROPYL ESTER]
Aspergillus fumigatus [4]
  Activity: 0 cm
Aspergillus flavus [5]
  Activity: 3.1 cm
Saccharomyces cerevisiae [6]
  Activity: 2.99
Aspergillus flavus [7]
  inhibition at 400 µM: 6.3%
Saccharomyces cerevisiae [8]
  inhibition at 800 µM: 32.7%
Aspergillus fumigatus [9]
  Activity: 3.9 cm
Aspergillus flavus [10]
  inhibition at 200 µM: 3.2%
Aspergillus flavus [11]
  MIC50: 2.9 mM (≈ 691 µg/mL)
Saccharomyces cerevisiae [12]
  inhibition at 3200 µM: 99.3%
Saccharomyces cerevisiae [13]
  inhibition at 1600 µM: 57.4%
Aspergillus fumigatus [14]
  inhibition at 6400 µM: 100%
Aspergillus fumigatus [15]
  Activity: 1 cm
Saccharomyces cerevisiae [16]
  Activity: 1.89
Aspergillus fumigatus [17]
  Activity: 4.2 cm
Aspergillus fumigatus [18]
  inhibition at 1600 µM: 42.6%
Saccharomyces cerevisiae [19]
  inhibition at 3200 µM: 76.8%
Aspergillus flavus [20]
  Activity: 0 cm
Aspergillus fumigatus [21]
  inhibition at 100 µM: 0%
Saccharomyces cerevisiae [22]
  inhibition at 3200 µM: 93%
Aspergillus flavus [23]
  inhibition at 800 µM: 12.5%
Saccharomyces cerevisiae [2]
  MIC50: 1.5 mM (≈ 357 µg/mL)
  MIC90: 4.5 mM (≈ 1070 µg/mL)
Aspergillus flavus [24]
  Activity: 2.3 cm
Saccharomyces cerevisiae [25]
  Activity: 0.32
Aspergillus flavus [26]
  Activity: 3.2 cm
Saccharomyces cerevisiae [27]
  Activity: 0
Saccharomyces cerevisiae [28]
  Activity: 1.07
Aspergillus fumigatus [29]
  Activity: 2.7 cm
Saccharomyces cerevisiae [1]
  inhibition at 5000 µM: 99.4%
Aspergillus flavus [30]
  inhibition at 100 µM: 0%
Aspergillus flavus [31]
  inhibition at 6400 µM: 100%
Aspergillus flavus [32]
  inhibition at 3200 µM: 53.2%
Aspergillus flavus [33]
  Activity: 2.8 cm
Aspergillus fumigatus [34]
  inhibition at 200 µM: 2.2%
Saccharomyces cerevisiae [35]
  Activity: 0.03
Aspergillus fumigatus [36]
  inhibition at 400 µM: 10.7%
Aspergillus fumigatus [37]
  MIC50: 2.1 mM (≈ 500 µg/mL)
Aspergillus fumigatus [38]
  Activity: 4.6 cm
Aspergillus flavus [39]
  inhibition at 1600 µM: 28.2%
Aspergillus fumigatus [40]
  inhibition at 3200 µM: 78.8%
Aspergillus flavus [41]
  Activity: 3 cm
Aspergillus flavus [42]
  Activity: 1.5 cm
Aspergillus fumigatus [43]
  inhibition at 800 µM: 17.1%
Saccharomyces cerevisiae [3]
  inhibition at 6400 µM: 100%
Aspergillus fumigatus [44]
  Activity: 4.7 cm

## COc1cc(CCC(=O)O)ccc1O [DIHYDROFERULIC ACID]
Saccharomyces cerevisiae [2]
  MIC50: 6.4 mM (≈ 1260 µg/mL)
Saccharomyces cerevisiae [1]
  inhibition at 5000 µM: 6.4%

## CCCCCCOC(=O)CCc1ccc(O)c(OC)c1 [HEXYLHYDROFERULATE]
Saccharomyces cerevisiae [6]
  Activity: 3.61
Saccharomyces cerevisiae [8]
  inhibition at 800 µM: 18.7%
Saccharomyces cerevisiae [12]
  inhibition at 3200 µM: 77.5%
Saccharomyces cerevisiae [13]
  inhibition at 1600 µM: 38.3%
Saccharomyces cerevisiae [16]
  Activity: 2.74
Saccharomyces cerevisiae [27]
  Activity: 0.28
Saccharomyces cerevisiae [1]
  inhibition at 5000 µM: 18.8%
Saccharomyces cerevisiae [35]
  Activity: 1
Saccharomyces cerevisiae [3]
  inhibition at 6400 µM: 93.7%
